Data published in US12410164B2, “Heterocyclic compounds and medical use thereof” (FONDAZIONE TELETHON, priority 2018, dated 2025).
“Also recorded” adds a separate entry of the source.

What was measured:
Type in all cases: cell-based
G542X-CFTR = test: HS-YFP assay in null CFBE41o− cells transfected with G542X-CFTR; conditions: G418 0.5 mg/ml alone, 24 hr
Method: To assess the function and pharmacological sensitivity of G542X-CFTR mutant, inventors used the null version of CFBE41o− cells, i.e. cells with negligible expression of endogenous CFTR and without HS-YFP. Such cells were transiently transfected with the plasmid coding for HS-YFP alone or in combination with: empty plasmid, plasmid coding for wild type CFTR, or plasmid coding for G542X-CFTR. For transfection, cells were seeded in 96-well microplates (30,000 cells/well) in 150 μl of antibiotic-free culture medium. After 24 hours, cells were transfected with the desired plasmids. For each well, 0.2 μg of total plasmid DNA and 0.5 μl of Lipofectamine 2000 (Invitrogen) were first pre-mixed in 50 μl of OPTIMEM (Invitrogen) to generate transfection complexes (60 minutes at room temperature), and then added to the cells. After 24 hour, the complexes were removed by replacement with fresh culture medium. The HS-YFP functional assay was performed after further 24 hours.
To assess the ability of compounds of present invention to improve the rescue of premature stop codon (class I) mutations, we carried out experiments on G542X-CFTR (FIG. 7). Null CFBE41o− cells, devoid of endogenous CFTR expression, were transiently transfected with empty, wild type CFTR or G542X-CFTR plasmids. All cells also received the HS-YFP plasmid to allow functional determination of CFTR-dependent anion transport. […] Where indicated, cells with G542X-CFTR were also treated with G418 (0.5 mg/ml) for 24 hr to induce readthrough of the stop codon mutation, with and without correctors (VX-809 and/or PP028, labeled as VX and PP). […] The activity resulting from wild type CFTR is also shown for comparison.

F508del-CFTR [1] = target: T1, F508del-CFTR (Homo sapiens, UniProt P13569, DEL508-508); test: HS-YFP kinetic fluorescence (iodide quenching rate) assay in CFBE41o− cells; design: expressed in transfected cells; host or cells: CFBE41o- cells with expression of F508del-CFTR and HS-YFP (generated as in Sondo et al. 2011)
T1 sequence (P13569 with tags, fused parts or gaps DEL508-508): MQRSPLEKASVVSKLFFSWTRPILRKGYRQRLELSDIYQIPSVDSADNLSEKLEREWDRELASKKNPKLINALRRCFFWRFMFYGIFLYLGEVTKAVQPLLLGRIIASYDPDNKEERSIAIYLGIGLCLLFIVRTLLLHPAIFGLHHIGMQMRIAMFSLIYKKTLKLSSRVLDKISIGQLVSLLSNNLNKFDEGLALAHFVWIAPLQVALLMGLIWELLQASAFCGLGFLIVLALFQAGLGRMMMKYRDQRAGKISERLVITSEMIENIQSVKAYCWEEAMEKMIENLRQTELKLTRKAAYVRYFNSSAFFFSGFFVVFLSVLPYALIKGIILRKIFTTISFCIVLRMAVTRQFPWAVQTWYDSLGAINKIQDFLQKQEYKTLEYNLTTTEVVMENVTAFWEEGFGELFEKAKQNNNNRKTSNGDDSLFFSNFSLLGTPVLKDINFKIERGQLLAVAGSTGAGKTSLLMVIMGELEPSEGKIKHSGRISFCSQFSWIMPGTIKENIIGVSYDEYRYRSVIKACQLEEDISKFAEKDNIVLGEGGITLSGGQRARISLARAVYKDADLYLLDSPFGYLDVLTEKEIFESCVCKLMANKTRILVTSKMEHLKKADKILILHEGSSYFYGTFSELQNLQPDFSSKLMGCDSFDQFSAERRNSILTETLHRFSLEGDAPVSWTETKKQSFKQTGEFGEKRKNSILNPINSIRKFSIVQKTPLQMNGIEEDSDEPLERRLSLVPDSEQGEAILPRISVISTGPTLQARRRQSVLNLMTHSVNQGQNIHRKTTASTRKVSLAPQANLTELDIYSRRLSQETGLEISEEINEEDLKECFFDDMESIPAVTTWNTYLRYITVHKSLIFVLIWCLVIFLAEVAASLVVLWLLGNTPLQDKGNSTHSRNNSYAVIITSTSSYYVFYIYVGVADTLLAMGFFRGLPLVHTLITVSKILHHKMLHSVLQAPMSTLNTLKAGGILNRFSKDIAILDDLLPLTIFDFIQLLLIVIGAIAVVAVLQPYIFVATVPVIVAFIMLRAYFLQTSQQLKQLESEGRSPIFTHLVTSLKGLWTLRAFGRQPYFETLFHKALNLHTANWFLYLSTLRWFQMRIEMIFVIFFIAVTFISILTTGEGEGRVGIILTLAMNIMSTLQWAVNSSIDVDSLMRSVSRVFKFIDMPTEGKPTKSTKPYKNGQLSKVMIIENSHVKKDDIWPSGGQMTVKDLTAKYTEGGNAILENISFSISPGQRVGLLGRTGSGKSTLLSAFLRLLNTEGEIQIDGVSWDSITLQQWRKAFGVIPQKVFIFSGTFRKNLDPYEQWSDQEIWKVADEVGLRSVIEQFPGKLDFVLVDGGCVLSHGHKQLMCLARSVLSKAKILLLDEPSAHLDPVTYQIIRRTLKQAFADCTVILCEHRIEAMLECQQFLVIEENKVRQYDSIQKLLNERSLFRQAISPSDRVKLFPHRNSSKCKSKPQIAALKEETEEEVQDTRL
How it was run: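 CFBE41o- cells co-expressing F508del-CFTR and HS-YFP, treated 24 h with compound (0.1-0.2% DMSO), then stimulated with 20 μM forskolin plus 50 μM genistein. Fluorescence was read for 14 s during NaI injection. Background-subtracted, normalized traces were fitted exponentially to give maximum quenching rate (QR).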

F508del-CFTR [2] = target: T1, F508del-CFTR; test: Analysis of F508del-CFTR maturation by immunoblot in CFBE41o− cells; design: expressed in transfected cells; host or cells: CFBE41o- cells with expression of F508del-CFTR and HS-YFP (generated as in Sondo et al. 2011); conditions: compound 10 μM plus VX-809 1 μM, 24 hr
Method: CFBE41o− cells were grown to confluence on 60-mm diameter dishes and lysed in RIPA buffer containing a complete protease inhibitor (Roche; cat. n. 11697498001). Cell lysates were centrifuged at 12000 rpm at 4° C. for 10 min. Supernatant protein concentration was calculated using the BCA assay (Euroclone; cat. n. EMP014500) following the manufacturer's instructions. Equal amounts of total protein content (30 μg) were separated onto 10% Criterion TGX Precast gels (Bio-rad laboratories Inc.; cat. n. 4561033), transferred to nitrocellulose membrane with Trans-Blot Turbo system (Bio-rad Laboratories Inc.) and analyzed by Western blotting. Primary antibody for CFTR was anti-CFTR 596 (University of North Carolina at Chapel Hill, and Cystic Fibrosis Foundation Therapeutics, see Cui L, et al. J. Mol Biol 2007, 365, 981-994) at 1:5000 dilution. As secondary antibody, anti-mouse HRP-conjugated Ab 97023 (Abcam) was used at 1:10000 dilution. Results were subsequently visualized by chemiluminescence using the SuperSignal West Femto Substrate (Thermo Scientific) and the Molecular Imager ChemiDoc XRS System.
To analyze the mechanism of action of the compounds of the invention, two types of experiments were carried out. In the first type of experiment, the electrophoretic mobility of F508del-CFTR protein was determined by immunoblot assay. This is a frequently used method to assess the effect of correctors at the protein level. In control conditions, F508del-CFTR migrates predominantly as a single band of 150 kDa called “band B”. This is the immature form of the protein residing in the endoplasmic reticulum. When the protein folding and stability is improved by correctors, an additional band appears at higher molecular weight (170 kDa). This is the so-called band C, which represents the mature form of the CFTR protein that has reached the Golgi compartment and acquired full glycosylation.

[3] = Table 1, compound at 10 μM plus VX-809, (QRTOT − QRVX)/QRVX, HS-YFP assay

SMILES | AI (%) additivity index (F508del-CFTR [1]; [3]) [%] | other results
CN[C@@H]1[C@@H](O)[C@@H](O[C@@H]2[C@@H](O)[C@H](O[C@H]3O[C@H]([C@@H](C)O)[C@@H](O)[C@H](O)[C@H]3N)[C@@H](N)C[C@H]2N)OC[C@]1(C)O [G418, reference compound] |  | CFTR activity (QR) in G542X-CFTR cells (G542X-CFTR): modest but significant increase in CFTR activity
Cc1ccc(Cn2c(C(=O)OC(C)C)c(Br)c3c2-c2[nH]c(=O)c(S(=O)(=O)c4ccccc4)cc2CC3)cc1 [PP034, Propan-2-yl 7-(benzenesulfonyl)-3-bromo-1-[(4-methylphenyl)methyl]-8-oxo-4,5,8,9-tetrahydro-1H-pyrrolo[3,2-h]quinoline-2-carboxylate] | 261 | structure-activity comparison of corrector potency/activity (F508del-CFTR [1]; relative to the analogue): Increased activity; band C (mature form) expression versus VX-809 alone (F508del-CFTR [2]): markedly enhances the abundance of the mature form of the protein; also recorded: marked increase in band C expression
CCOC(=O)c1cc2c(n1Cc1cccc(C)c1)-c1nc(NS(=O)(=O)c3ccccc3)ncc1CC2 [SVQ11, Ethyl 2-[(benzenesulfonyl)amino]-9-[(3-methylphenyl)methyl]-6,9-dihydro-5H-pyrrolo[3,2-h]quinazoline-8-carboxylate] |  | AI additivity index (F508del-CFTR [1]; Table 3, compound at 10 μM plus VX-809, (QRTOT-QRVX)/QRVX): 151%
CC(C)OC(=O)c1ccc2n1CCc1cnc(NC3CCCC3)nc1-2 [QZQ20, Propan-2-yl 2-(cyclopentylamino)-5,6-dihydropyrimido[5,4-g]indolizine-8-carboxylate] |  | AI (%) additivity index (F508del-CFTR [1]; Table 5, compound at 10 μM plus VX-809, (QRTOT-QRVX)/QRVX): 5%
CC(C)OC(=O)c1c(Br)c2c(n1Cc1ccc(F)cc1)-c1[nH]c(=O)c(S(=O)(=O)c3ccccc3)cc1CC2 [PP108, Propan-2-yl 7-(benzenesulfonyl)-3-bromo-1-[(4-fluorophenyl)methyl]-8-oxo-4,5,8,9-tetrahydro-1H-pyrrolo[3,2-h]quinoline-2-carboxylate] | 257 | 
Cc1cccc(Cn2c(C(=O)NC(C)C)c(Br)c3c2-c2[nH]c(=O)c(S(=O)(=O)c4ccccc4)cc2CC3)c1 [PP091, 7-(Benzenesulfonyl)-3-bromo-1-[(3-methylphenyl)methyl]-8-oxo-N-(propan-2-yl)-4,5,8,9-tetrahydro-1H-pyrrolo[3,2-h]quinoline-2-carboxamide] | 208 | 
Cc1cccc(Cn2c(C(=O)NS(=O)(=O)c3ccccc3)c(Br)c3c2-c2[nH]c(=O)c(S(=O)(=O)c4ccccc4)cc2CC3)c1 [PP100, N,7-di(benzenesulfonyl)-3-bromo-1-[(3-methylphenyl)methyl]-8-oxo-4,5,8,9-tetrahydro-1H-pyrrolo[3,2-h]quinoline-2-carboxamide] | 47 | 
Cc1cccc(Cn2c(C(=O)Nc3cc(C(C)(C)C)on3)c(Br)c3c2-c2[nH]c(=O)c(S(=O)(=O)c4ccccc4)cc2CC3)c1 [PP102, 7-(Benzenesulfonyl)-3-bromo-N-(5-tert-butyl-1,2-oxazol-3-yl)-1-[(3-methylphenyl)methyl]-8-oxo-4,5,8,9-tetrahydro-1H-pyrrolo[3,2-h]quinoline-2-carboxamide] | 103 | 
CCOC(=O)c1cc2c(n1Cc1ccc(C)cc1C)-c1[nH]c(=O)c(S(=O)(=O)c3ccccc3)cc1CC2 [PP021, Ethyl 7-(benzenesulfonyl)-1-[(2,4-dimethylphenyl)methyl]-8-oxo-4,5,8,9-tetrahydro-1H-pyrrolo[3,2-h]quinoline-2-carboxylate] | 40 | 
